{
  "source": "patent US20110223256A1",
  "about": "“Method For Stabilizing Flavonoid Aqueous Dispersion” (STOKELY-VAN CAMP, INC., priority 2010, published 2011)",
  "data": [
    {"test": "Shelf life of aqueous dispersion in 20 oz beverage", "assay_type": "physicochemical", "conditions": "aqueous dispersion in 20 oz beverage, 22-25° C.; stable = no settling, phase separation or precipitates", "description": "(§1) As set forth in the examples below, stable aqueous dispersions containing bioactive compounds were prepared by using the solubilization and stabilization process. The resulting dispersions were fine, homogeneous, and stable. There were no settling, phase separation, and precipitates on the side of the bottle (See FIG. 3 and Table 1).", "values": [
      {"smiles": "C[C@@H]1CC[C@H]2[C@@H](C)C(=O)O[C@@H]3O[C@@]4(C)CC[C@@H]1[C@]32OO4", "note": "[Artemisinin, reference compound]", "Shelf Life (22-25° C.)": "Stable after at least 3 months"},
      {"smiles": "COc1cc(/C=C/C(=O)CC(=O)/C=C/c2ccc(O)c(OC)c2)ccc1O", "note": "[Curcumin]", "Shelf Life (22-25° C.)": "Stable after at least 3 months"},
      {"smiles": "COc1ccc([C@@H]2CC(=O)c3c(O)cc(O[C@@H]4O[C@H](CO[C@@H]5O[C@@H](C)[C@H](O)[C@@H](O)[C@H]5O)[C@@H](O)[C@H](O)[C@H]4O)cc3O2)cc1O", "note": "[Hesperedin]", "Shelf Life (22-25° C.)": "Stable after at least 3 months"},
      {"smiles": "O=C1C[C@@H](c2ccc(O)cc2)Oc2cc(O)cc(O)c21", "note": "[Naringenin]", "Shelf Life (22-25° C.)": "Stable after at least 3 months"},
      {"smiles": "O=c1c(O)c(-c2ccc(O)c(O)c2)oc2cc(O)cc(O)c12", "note": "[Quercetin, 2-(3,4-dihydroxyphenyl)-3,5,7-trihydroxy-4H-chromen-4-one]", "Shelf Life (22-25° C.)": "Stable after at least 6 months"},
      {"smiles": "Oc1ccc(C=Cc2cc(O)cc(O)c2)cc1", "note": "[Resveratrol]", "Shelf Life (22-25° C.)": "Stable after at least 3 months"},
      {"smiles": "COc1ccc2oc(-c3ccc(OC)c(OC)c3)c(OC)c(=O)c2c1", "note": "[Tetramethoxyflavone, 3,6,3′,4′-Tetramethoxyflavone]", "Shelf Life (22-25° C.)": "Stable after at least 3 months"}
    ]},
    {"test": "Shelf life of aqueous dispersion in 20 oz beverage", "assay_type": "physicochemical", "conditions": "depending on the dispersion stabilizer(s) used", "description": "as §1", "values": [
      {"smiles": "O=c1c(O)c(-c2ccc(O)c(O)c2)oc2cc(O)cc(O)c12", "note": "[Quercetin, 2-(3,4-dihydroxyphenyl)-3,5,7-trihydroxy-4H-chromen-4-one]", "Length of time quercetin stays dispersed in a beverage": "about 12 hours to about six months or longer"}
    ]}
  ]
}
